{"source": "ChEMBL document CHEMBL4052785", "about": "“Discovery of (R)-5-(benzo[d][1,3]dioxol-5-yl)-7-((1-(vinylsulfonyl)pyrrolidin-2-yl)methyl)-7H-pyrrolo[2,3-d]pyrimidin-4-amine (B6) as a potent Bmx inhibitor for the treatment of NSCLC” (Bioorg Med Chem Lett, 2017)", "key": {"Homo sapiens [1]": {"species_on_record": "Homo sapiens", "assay": "Selectivity ratio of IC50 for recombinant human N-terminal His6-tagged EGFR (696 to end residues) to IC50 for human full length N-terminal His6-tagged BMX"}, "[2]": {"target": "Tyrosine-protein kinase JAK3 (Homo sapiens, UniProt P52333)", "sequence (P52333 whole entry)": "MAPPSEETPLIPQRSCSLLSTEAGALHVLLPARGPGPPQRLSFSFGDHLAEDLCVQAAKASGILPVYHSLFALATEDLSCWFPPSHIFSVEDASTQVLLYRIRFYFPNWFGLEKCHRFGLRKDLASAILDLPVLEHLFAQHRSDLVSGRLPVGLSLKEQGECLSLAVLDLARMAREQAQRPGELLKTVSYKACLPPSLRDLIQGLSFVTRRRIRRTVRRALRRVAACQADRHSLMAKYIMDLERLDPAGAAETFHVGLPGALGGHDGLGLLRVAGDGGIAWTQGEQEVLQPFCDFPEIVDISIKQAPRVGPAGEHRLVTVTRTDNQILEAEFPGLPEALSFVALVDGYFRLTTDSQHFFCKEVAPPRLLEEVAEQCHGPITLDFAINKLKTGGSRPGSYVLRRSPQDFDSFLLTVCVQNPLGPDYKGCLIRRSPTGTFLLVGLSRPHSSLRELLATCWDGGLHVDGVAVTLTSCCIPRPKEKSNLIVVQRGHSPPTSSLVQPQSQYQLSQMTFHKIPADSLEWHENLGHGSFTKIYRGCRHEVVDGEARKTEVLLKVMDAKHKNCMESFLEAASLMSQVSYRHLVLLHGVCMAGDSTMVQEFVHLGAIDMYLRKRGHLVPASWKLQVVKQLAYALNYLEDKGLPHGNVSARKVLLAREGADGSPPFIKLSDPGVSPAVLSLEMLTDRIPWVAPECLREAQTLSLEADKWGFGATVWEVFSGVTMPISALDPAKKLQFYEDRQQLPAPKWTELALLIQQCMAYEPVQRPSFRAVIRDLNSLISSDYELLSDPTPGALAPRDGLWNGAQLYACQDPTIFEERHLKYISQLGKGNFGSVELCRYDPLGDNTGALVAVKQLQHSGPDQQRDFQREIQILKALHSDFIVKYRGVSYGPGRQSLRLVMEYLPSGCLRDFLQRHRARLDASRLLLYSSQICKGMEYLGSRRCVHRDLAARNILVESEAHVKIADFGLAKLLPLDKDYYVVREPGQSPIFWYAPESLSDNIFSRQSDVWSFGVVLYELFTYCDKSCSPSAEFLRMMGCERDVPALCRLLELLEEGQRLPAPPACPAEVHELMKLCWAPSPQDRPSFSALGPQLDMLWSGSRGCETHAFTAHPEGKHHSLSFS", "assay": "Inhibition of recombinant human N-terminal His6-tagged JAK3 (781 to end residues) expressed in baculovirus Sf21 insect cells preincubated for 5 mins followed by substrate addition after 30 to 60 mins in presence of ATP by fluorescence assay"}, "[3]": {"target": "Serine/threonine-protein kinase Nek2 (Homo sapiens, UniProt P51955)", "sequence (P51955 whole entry)": "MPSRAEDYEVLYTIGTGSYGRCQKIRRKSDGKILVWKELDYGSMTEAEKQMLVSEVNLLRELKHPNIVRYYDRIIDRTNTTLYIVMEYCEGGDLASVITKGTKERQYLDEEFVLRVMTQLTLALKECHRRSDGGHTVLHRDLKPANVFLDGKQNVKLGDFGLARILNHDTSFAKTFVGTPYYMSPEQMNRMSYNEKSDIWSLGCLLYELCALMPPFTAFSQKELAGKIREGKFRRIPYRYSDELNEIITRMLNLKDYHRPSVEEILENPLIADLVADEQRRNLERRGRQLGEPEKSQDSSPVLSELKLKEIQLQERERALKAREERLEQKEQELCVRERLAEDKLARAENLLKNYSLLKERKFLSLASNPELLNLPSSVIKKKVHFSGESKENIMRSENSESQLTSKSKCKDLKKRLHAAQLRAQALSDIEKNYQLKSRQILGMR", "assay": "Inhibition of recombinant human full length N-terminal His6-tagged NEK2 expressed in baculovirus Sf21 insect cells preincubated for 5 mins followed by substrate addition after 30 to 60 mins in presence of ATP by fluorescence assay"}, "[4]": {"target": "Cytoplasmic tyrosine-protein kinase BMX (Homo sapiens, UniProt P51813)", "sequence (P51813 whole entry)": "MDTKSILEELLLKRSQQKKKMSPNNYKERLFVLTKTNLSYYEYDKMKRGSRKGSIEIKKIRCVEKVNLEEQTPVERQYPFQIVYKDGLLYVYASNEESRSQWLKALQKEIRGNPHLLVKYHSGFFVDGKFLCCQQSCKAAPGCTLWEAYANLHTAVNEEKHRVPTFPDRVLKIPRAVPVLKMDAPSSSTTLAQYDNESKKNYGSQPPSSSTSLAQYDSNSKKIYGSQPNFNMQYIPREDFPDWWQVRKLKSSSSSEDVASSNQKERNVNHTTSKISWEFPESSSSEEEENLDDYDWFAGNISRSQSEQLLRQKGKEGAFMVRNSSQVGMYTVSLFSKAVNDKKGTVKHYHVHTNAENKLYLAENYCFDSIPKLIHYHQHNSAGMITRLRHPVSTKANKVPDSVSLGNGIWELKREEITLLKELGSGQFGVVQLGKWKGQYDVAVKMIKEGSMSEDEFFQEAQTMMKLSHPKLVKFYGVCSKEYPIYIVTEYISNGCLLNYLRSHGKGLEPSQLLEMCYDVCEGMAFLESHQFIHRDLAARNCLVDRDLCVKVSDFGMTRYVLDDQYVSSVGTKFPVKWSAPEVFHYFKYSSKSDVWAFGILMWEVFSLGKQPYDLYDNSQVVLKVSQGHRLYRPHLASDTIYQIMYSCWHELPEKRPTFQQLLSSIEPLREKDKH", "assay": "Inhibition of recombinant human full length N-terminal His6-tagged BMX expressed in Sf21 cells preincubated for 5 mins followed by biotinyl-beta Abeta Abeta AEEEPQYEEIPIYLELLP substrate addition after 30 to 60 mins in presence of ATP by fluorescence assay"}, "[5]": {"target": "Tyrosine-protein kinase CSK (Homo sapiens, UniProt P41240)", "sequence (P41240 whole entry)": "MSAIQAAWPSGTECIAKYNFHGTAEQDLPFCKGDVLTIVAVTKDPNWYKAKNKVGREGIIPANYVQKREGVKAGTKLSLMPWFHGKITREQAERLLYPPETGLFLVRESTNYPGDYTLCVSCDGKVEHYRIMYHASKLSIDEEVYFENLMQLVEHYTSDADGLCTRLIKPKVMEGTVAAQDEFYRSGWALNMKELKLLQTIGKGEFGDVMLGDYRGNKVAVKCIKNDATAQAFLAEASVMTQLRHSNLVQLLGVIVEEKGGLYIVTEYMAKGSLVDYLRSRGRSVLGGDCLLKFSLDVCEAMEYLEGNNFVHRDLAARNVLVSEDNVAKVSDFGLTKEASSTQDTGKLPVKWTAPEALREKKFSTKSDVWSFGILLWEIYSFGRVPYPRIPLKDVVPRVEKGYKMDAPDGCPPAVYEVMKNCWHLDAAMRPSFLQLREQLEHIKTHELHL", "assay": "Inhibition of recombinant human full length N-terminal GST-tagged CSK expressed in Escherichia coli BL21 (DE3) cells preincubated for 5 mins followed by biotinyl-beta Abeta Abeta AEEEPQYEEIPIYLELLP substrate addition after 30 to 60 mins in presence of ATP by fluorescence assay"}, "[6]": {"target": "Tyrosine-protein kinase Blk (Homo sapiens, UniProt P51451)", "sequence (P51451 whole entry)": "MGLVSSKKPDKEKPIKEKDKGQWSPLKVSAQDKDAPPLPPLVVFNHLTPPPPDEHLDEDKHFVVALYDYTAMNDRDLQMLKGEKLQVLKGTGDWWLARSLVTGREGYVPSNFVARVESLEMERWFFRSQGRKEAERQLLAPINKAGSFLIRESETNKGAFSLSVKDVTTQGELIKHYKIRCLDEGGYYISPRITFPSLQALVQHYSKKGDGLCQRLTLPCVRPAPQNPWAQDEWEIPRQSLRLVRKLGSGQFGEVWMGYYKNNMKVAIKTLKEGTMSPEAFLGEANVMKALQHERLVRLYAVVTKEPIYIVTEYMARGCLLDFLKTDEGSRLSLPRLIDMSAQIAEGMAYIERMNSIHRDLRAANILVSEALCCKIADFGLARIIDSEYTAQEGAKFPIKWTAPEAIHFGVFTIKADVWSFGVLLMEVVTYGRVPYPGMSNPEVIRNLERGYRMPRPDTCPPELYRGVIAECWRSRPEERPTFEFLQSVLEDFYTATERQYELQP", "assay": "Inhibition of BLK (unknown origin) preincubated for 5 mins followed by substrate addition after 30 to 60 mins in presence of ATP by fluorescence assay"}, "NCI-H1975": {"tested_on": "NCI-H1975", "assay": "Antitumor activity against human NCI-H1975 cells xenografted in nude mouse assessed as tumor growth inhibition at 25 mg/kg administered via oral gavage qd measured every 2 days up to 18 days relative to control", "assay_type": "functional", "details": "read-out: TGI"}, "HCC827": {"tested_on": "HCC827", "assay": "Antiproliferative activity against human HCC827 cells harboring EGFR Del19 mutant after 72 hrs by MTT assay", "assay_type": "functional, cell-based", "details": "HCC827, 72 h"}, "Homo sapiens [7]": {"species_on_record": "Homo sapiens", "assay": "Selectivity ratio of IC50 for recombinant human full length N-terminal His6-tagged NEK2 to IC50 for human full length N-terminal His6-tagged BMX"}, "Homo sapiens [8]": {"species_on_record": "Homo sapiens", "assay": "Selectivity ratio of IC50 for recombinant human full length N-terminal His6-tagged LCK to IC50 for human full length N-terminal His6-tagged BMX"}, "Homo sapiens [9]": {"species_on_record": "Homo sapiens", "assay": "Selectivity ratio of IC50 for recombinant human full length N-terminal His6-tagged BRK to IC50 for human full length N-terminal His6-tagged BMX"}, "Mus musculus": {"tested_on": "Mus musculus", "assay": "Toxicity in nude mouse xenografted with human NCI-H1975 cells assessed as adverse effects at 25 mg/kg administered qd via oral gavage for 18 days measured on day 14", "assay_type": "organism-based", "details": "in vivo, 432 h"}, "[10]": {"target": "Dual specificity mitogen-activated protein kinase kinase 7 (Homo sapiens, UniProt O14733)", "sequence (O14733 whole entry)": "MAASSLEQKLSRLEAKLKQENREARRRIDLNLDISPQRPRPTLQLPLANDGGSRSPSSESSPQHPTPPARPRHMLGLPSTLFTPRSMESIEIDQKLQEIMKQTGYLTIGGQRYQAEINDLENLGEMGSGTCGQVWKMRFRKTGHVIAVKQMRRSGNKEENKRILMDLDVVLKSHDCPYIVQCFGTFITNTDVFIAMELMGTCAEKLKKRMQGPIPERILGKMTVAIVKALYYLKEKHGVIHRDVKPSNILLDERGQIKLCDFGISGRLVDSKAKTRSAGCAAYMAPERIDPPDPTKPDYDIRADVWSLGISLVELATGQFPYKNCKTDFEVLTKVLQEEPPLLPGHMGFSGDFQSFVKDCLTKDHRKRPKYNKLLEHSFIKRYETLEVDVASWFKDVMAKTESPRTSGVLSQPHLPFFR", "assay": "Inhibition of recombinant human N-terminal GST-tagged MKK7beta (2 to end residues) expressed in Escherichia coli preincubated for 5 mins followed by substrate addition after 30 to 60 mins in presence of ATP by fluorescence assay"}, "A549": {"tested_on": "A549", "assay": "Antiproliferative activity against human A549 cells harboring wild type EGFR after 72 hrs by MTT assay", "assay_type": "functional, cell-based", "details": "A549, 72 h"}, "Homo sapiens [11]": {"species_on_record": "Homo sapiens", "assay": "Selectivity ratio of IC50 for human JAK1 to IC50 for human full length N-terminal His6-tagged BMX"}, "[12]": {"target": "Tyrosine-protein kinase BTK (Homo sapiens, UniProt Q06187)", "sequence (Q06187 whole entry)": "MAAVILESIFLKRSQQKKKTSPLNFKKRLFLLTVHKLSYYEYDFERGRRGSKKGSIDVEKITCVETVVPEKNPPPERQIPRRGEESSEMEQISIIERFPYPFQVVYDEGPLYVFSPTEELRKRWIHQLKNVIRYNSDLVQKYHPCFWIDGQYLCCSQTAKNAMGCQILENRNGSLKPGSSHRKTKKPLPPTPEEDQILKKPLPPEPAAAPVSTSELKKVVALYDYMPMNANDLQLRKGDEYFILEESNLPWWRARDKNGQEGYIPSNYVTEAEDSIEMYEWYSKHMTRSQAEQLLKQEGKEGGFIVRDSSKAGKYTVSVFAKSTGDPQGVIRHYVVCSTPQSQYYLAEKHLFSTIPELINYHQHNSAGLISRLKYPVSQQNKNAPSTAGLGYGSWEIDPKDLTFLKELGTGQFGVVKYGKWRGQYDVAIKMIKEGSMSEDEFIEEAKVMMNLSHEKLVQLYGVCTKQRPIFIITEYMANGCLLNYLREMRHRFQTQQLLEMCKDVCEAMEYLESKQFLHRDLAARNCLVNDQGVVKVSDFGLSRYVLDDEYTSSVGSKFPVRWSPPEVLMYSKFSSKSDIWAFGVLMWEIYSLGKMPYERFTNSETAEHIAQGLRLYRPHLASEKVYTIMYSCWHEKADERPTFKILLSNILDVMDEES", "assay": "Inhibition of recombinant human full length N-terminal His6-tagged BTK expressed in baculovirus Sf21 insect cells preincubated for 5 mins followed by LSNLYHQGKFLQT substrate addition after 30 to 60 mins in presence of ATP by fluorescence assay"}, "Homo sapiens [13]": {"species_on_record": "Homo sapiens", "assay": "Selectivity ratio of IC50 for recombinant human full length N-terminal His6-tagged LYN to IC50 for human full length N-terminal His6-tagged BMX"}}}
{"smiles": "C=CS(=O)(=O)N1CCC[C@@H]1Cn1cc(-c2ccc3c(c2)OCO3)c2c(N)ncnc21", "values": [{"measurement": "Ratio IC50", "setting": "Homo sapiens [1]", "result": 18}, {"measurement": "IC50", "setting": "[2]", "result": 8.16, "unit": "µM"}, {"measurement": "IC50", "setting": "[3]", "result": "> 10", "unit": "µM"}, {"measurement": "IC50", "setting": "[4]", "result": 0.0357, "unit": "µM"}, {"measurement": "IC50", "setting": "[5]", "result": 2.83, "unit": "µM"}, {"measurement": "IC50", "setting": "[6]", "result": 0.0764, "unit": "µM"}, {"measurement": "inhibition in vivo at 25 mg/kg", "setting": "NCI-H1975", "result": 73.9, "unit": "%"}, {"measurement": "IC50", "setting": "HCC827", "result": 0.014, "unit": "µM"}, {"measurement": "Ratio IC50", "setting": "Homo sapiens [7]", "result": "> 280"}, {"measurement": "Ratio IC50", "setting": "Homo sapiens [8]", "result": 5.5}, {"measurement": "Ratio IC50", "setting": "Homo sapiens [9]", "result": 5.9}, {"measurement": "Activity", "setting": "Mus musculus", "result": "Non-Toxic"}, {"measurement": "IC50", "setting": "[10]", "result": 0.189, "unit": "µM"}, {"measurement": "IC50", "setting": "A549", "result": 4.15, "unit": "µM"}, {"measurement": "Ratio IC50", "setting": "Homo sapiens [11]", "result": "> 280"}, {"measurement": "IC50", "setting": "[12]", "result": 0.0886, "unit": "µM"}, {"measurement": "Ratio IC50", "setting": "Homo sapiens [13]", "result": 8.3}]}
